Experimental data published in patent US5488060A, “Substituted thiadiazoles, compositions containing them and their use as antimicrobial and marine antifouling agents” (The Dow Chemical Company, priority 1994, dated 1996).
≈ marks a conversion by molar mass, not a printed value. Where two headings read alike, the source gives them in different places.

Key:
Assay type in all cases: cell-based
[1] = tested on: Staphylococcus aureus (Sa); assay: Minimum inhibitory concentration (MIC) in nutrient agar, Staphylococcus aureus
In short: (§1)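 Agar dilution in nutrient agar at pH 6.8 and pH 8.2 (tricine-buffered), compound at 0–500 ppm from a 1% acetone/water solution. Replicator inoculation from 10^8 CFU/mL suspensions; plates incubated 48 h at 30° C. MIC is the lowest concentration preventing growth.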

[2] = tested on: Salmonella choleraesuis (Se); assay: Minimum inhibitory concentration (MIC) in nutrient agar, Salmonella choleraesuis; details: Salmonella enterica
In short: as §1

Fusarium oxysporum (Fo) = assay: Minimum inhibitory concentration (MIC) in malt yeast agar, Fusarium oxysporum
In short: (§2)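 Growth is scored at 30 °C after 72 h for fungi and 48 h for yeast on malt yeast agar (pH 5.5) containing compound at final levels from 500 down to zero ppm. Organisms are grown 7 days at 30 °C, suspended in saline with octylphenoxy polyethoxy ethanol, and diluted 1:9 before replicator inoculation.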

Escherichia coli (Ec) = assay: Minimum inhibitory concentration (MIC) in nutrient agar, Escherichia coli
In short: as §1

Candida albicans (Ca) = assay: Minimum inhibitory concentration (MIC) in malt yeast agar, Candida albicans
In short: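 Agar dilution: test compound from a 1% acetone/water solution was mixed into malt yeast agar (pH 5.5) at 48 °C to final […], 25, 10, 5, 2.5, 1.0 and zero ppm. Plates dried 24 h, were replicator-inoculated with 1:9 saline-diluted suspensions of 7-day 30 °C cultures, and were read after 72 h (fungi) or 48 h (yeast) at 30 °C.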

Aspergillus niger (An) = assay: Minimum inhibitory concentration (MIC) in malt yeast agar, Aspergillus niger; details: 72 h, pH 5.5, read-out: Minimum Inhibitory Concentration, An
In short: as §2

[3] = tested on: Penicillium chrysogenum (Pc); assay: Minimum inhibitory concentration (MIC) in malt yeast agar, Penicillium chrysogenum; details: 72 h, pH 5.5, read-out: Minimum Inhibitory Concentration, PC
In short: as §2

[4] = pH 6.8, nutrient agar, 30° C., 48 hours, read-out: Minimum Inhibitory Concentration, Sa
[5] = pH 6.8, nutrient agar, 30° C., 48 hours, read-out: Minimum Inhibitory Concentration, SC

| SMILES | MIC ([1]; 48 h, pH 8.2, read-out: Minimum Inhibitory Concentration, Sa) | MIC [1, 4] | MIC ([2]; 48 h, pH 8.2, read-out: Minimum Inhibitory Concentration, SC) | MIC [2, 5] | MIC (Fusarium oxysporum (Fo); pH 5.5, malt yeast agar, 30° C., 72 hours for fungi, read-out: Minimum Inhibitory Concentration, Fo) | MIC (Escherichia coli (Ec); 48 h, pH 6.8, read-out: Minimum Inhibitory Concentration, Ec) | MIC (Escherichia coli (Ec); 48 h, pH 8.2, read-out: Minimum Inhibitory Concentration, Ec) | MIC (Candida albicans (Ca); 48 h, pH 5.5, read-out: Minimum Inhibitory Concentration, Ca) | MIC (Aspergillus niger (An)) | MIC [3] | MIC ([1]; pH 8.2, nutrient agar, 30° C., 48 hours, read-out: Minimum Inhibitory Concentration, Sa) | MIC ([2]; pH 8.2, nutrient agar, 30° C., 48 hours, read-out: Minimum Inhibitory Concentration, SC) | MIC (Fusarium oxysporum (Fo); 72 h, pH 5.5, read-out: Minimum Inhibitory Concentration, Fo) | MIC (Escherichia coli (Ec); pH 6.8, nutrient agar, 30° C., 48 hours, read-out: Minimum Inhibitory Concentration, Ec) | MIC (Escherichia coli (Ec); pH 8.2, nutrient agar, 30° C., 48 hours, read-out: Minimum Inhibitory Concentration, Ec) | MIC (Candida albicans (Ca); pH 5.5, malt yeast agar, 30° C., 48 hours for yeast, read-out: Minimum Inhibitory Concentration, Ca) |
| --- | --- | --- | --- | --- | --- | --- | --- | --- | --- | --- | --- | --- | --- | --- | --- | --- |
| N#CSc1nsnc1-c1ccccc1 [Example I, 4-Phenyl-3-thiocyanato-1,2,5-thiadiazole] | 500 mg/L (≈ 2280 µM) | 25 mg/L (≈ 114 µM) | > 500 mg/L | 50 mg/L (≈ 228 µM) | 2.5 mg/L (≈ 11.4 µM) | 50 mg/L (≈ 228 µM) | > 500 mg/L | 2.5 mg/L (≈ 11.4 µM) |  |  |  |  |  |  |  |  |
| N#CSCSc1nsnc1-c1ccccc1 [Example XVI, 4-Phenyl-3-thiocyanato-methylthio-1,2,5-thiadiazole] |  | 25 mg/L (≈ 94.2 µM) |  | 25 mg/L (≈ 94.2 µM) |  |  |  |  | 2.5 mg/L (≈ 9.42 µM) | 2.5 mg/L (≈ 9.42 µM) | 50 mg/L (≈ 188 µM) | 250 mg/L (≈ 942 µM) | 5 mg/L (≈ 18.8 µM) | 25 mg/L (≈ 94.2 µM) | 250 mg/L (≈ 942 µM) | 5 mg/L (≈ 18.8 µM) |
